In PMC9228215, “Anion-Sensing Properties of Cyclopentaphenylalanine” (Molecules, 2022):
Where a SMILES comes first, the peptide text is derived from it.

What was measured:
[1] = cited from earlier work
Description: The reaction enthalpy (−15 kJ mol^−1) and entropy (65 J mol^−1 K^−1) for L-Cl complex formation are close to the corresponding values for complexation of chloride with cyclopentaleucine (∆rH = −11 kJ mol^−1, ∆rS = 76 J mol^−1 K^−1). Therefore, the inclusion of fluorescent groups to the cyclopeptide sidechain improved the anion detection capability ...

[2] = Solubility determination of L (saturated solutions, spectrophotometric); type: physicochemical
Description: Saturated solutions of L in acetonitrile and methanol were prepared by adding an excess amount of the solid substance to the solvent. The obtained mixtures were left in a thermostat at 25 °C for several days in order to equilibrate. The concentrations of saturated solutions were determined at 25.0 °C spectrophotometrically by means of a Varian Cary 5000 spectrophotometer equipped with a thermostatting device. Calibration curves were obtained by measuring the absorbances of solutions of known concentrations.

[3] = Isothermal titration calorimetry (microcalorimetry) of L with chloride; type: binding; settings: acetonitrile, 25.0 °C, measurements repeated three times
Description: Microcalorimetric measurements were conducted with an isothermal titration calorimeter Microcal VP-ITC at 25.0 °C. Thermograms were processed using the Microcal OriginPro 7.0 program (OriginLab Corporation, Northampton, MA, USA).
In the calorimetric studies of chloride complexation by L, the enthalpy changes were recorded upon stepwise additions of salt solution into the solution of cyclopeptide ligand (V0 = 1.4 cm^3). The heats measured in the titration experiments were corrected for the heats of titrant dilution obtained by blank experiments. The dependence of successive enthalpy changes on the titrant volume was processed by non-linear least-squares fitting procedure using OriginPro 7.5 program (OriginLab Corporation, Northampton, MA, USA). Measurements were repeated three times.

[4] = Comparison of stability constants in methanol and acetonitrile, bromide; type: binding; settings: 25 °C
Description: (§1) Fluorimetric titrations were conducted on Varian Cary Eclipse Fluorimeter, UV-Vis spectra were recorded by Agilent Cary 5000 spectrophotometer, and CD spectra were recorded on JASCO J815 spectrophotometer. Fluorimeter and UV-Vis spectrophotometer were connected to thermostating device, whereas CD titrations were performed at room temperature. The excitation wavelength used in all fluorimetric titrations was 260 nm, spectra were recorded at 2 nm interval with 0.4 s integration time, 10 nm excitation, and emission slits were used. In titrations with iodide, the obtained spectra were corrected by the anion concentration dependent solvent emission spectra. […] CD spectra were recorded in the 200–300 nm wavelength range with a 0.2 nm data pitch and scanning speed of 200 nm/min; 2 scans were accumulated for each spectrum. […]
(§2) ^1H NMR titrations were carried out at 25 °C by means of a Bruker Avance III HD 400 MHz with a solvent signal used as a standard. […] Spectra were recorded at 16 pulses. ^1H NMR spectra were processed and visualized by means of MestReNova 6.1 software (Mestrelab Research, Santiago de Compostela, Spain). Stability constants of the corresponding complexes were determined from the obtained ^1H NMR spectra by using multivariate analysis implemented in HypNMR 4.0 software (Protonic Software, Leeds, UK) included in the Hyperquad program package.

[5] = Comparison of stability constants in methanol and acetonitrile, chloride; type: binding; settings: 25 °C
Description: as §1
as §2, with “package. […]” for “package.”

Transfer Gibbs energy of L (MeCN→MeOH) ([2]; determined from ligand solubilities in acetonitrile and methanol, 25 °C)	Solubility of free L in acetonitrile ([2]; thermodynamic, excess solid in acetonitrile, equilibrated several days at 25 °C, saturated solution measured spectrophotometrically (UV) at 25.0 °C with calibration curve)	Solubility of free L in methanol ([2]; thermodynamic, excess solid in methanol, equilibrated several days at 25 °C, saturated solution measured spectrophotometrically (UV) at 25.0 °C with calibration curve)	Decrease in stability constant in methanol compared to acetonitrile, in the log K value [4]	Decrease in stability constant in methanol compared to acetonitrile, in the log K value [5]	Compound	∆rH for complexation of chloride with cyclopentaleucine [1] [kcal/mol]	∆rS for complexation of chloride with cyclopentaleucine [1] [J mol^−1 K^−1]	Reaction enthalpy for L-Cl complex formation [3] [kcal/mol]	Reaction entropy for L-Cl complex formation [3] [J mol^−1 K^−1]
					cyclopentaleucine	-2.63	76		
negligible	(2.72 ± 0.02) × 10^−3 mol dm^−3	(2.81 ± 0.03) × 10^−3 mol dm^−3	~3.5	about 4.5	O=C1N[C@@H](Cc2ccccc2)C(=O)N[C@@H](Cc2ccccc2)C(=O)N[C@@H](Cc2ccccc2)C(=O)N[C@@H](Cc2ccccc2)C(=O)N[C@H]1Cc1ccccc1 [L, cyclopentaphenylalanine] (cyclo(FFFFF))			-3.59	65
